#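 Values below derive from 48-hour exposures of cells grown in 96-well plates, with endpoints linearly interpolated between the two concentrations bracketing the appropriate inhibition level. TGI is the concentration that stops growth completely.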
# Experiments:
# Assay in all cases: NCI-60 cell line screen, 48 h
# [1] = test system: TK-10 renal
# [2] = test system: HCT-116 colon
# [3] = test system: SR leukemia
# [4] = test system: OVCAR-4 ovarian
# [5] = test system: DU-145 prostate
# [6] = test system: HCC-2998 colon
# [7] = test system: NCI-H522 lung
# [8] = test system: NCI-H460 lung
# [9] = test system: SNB-75 CNS
# [10] = test system: CCRF-CEM leukemia
# [11] = test system: SN12C renal
# [12] = test system: SW-620 colon
# [13] = test system: M14 melanoma
# [14] = test system: SF-268 CNS
# [15] = test system: OVCAR-3 ovarian
# [16] = test system: OVCAR-8 ovarian
# [17] = test system: HT29 colon
# [18] = test system: MOLT-4 leukemia
# [19] = test system: T-47D breast
# [20] = test system: UACC-257 melanoma
# [21] = test system: NCI-H226 lung
# [22] = test system: MDA-MB-231 breast
# [23] = test system: NCI/ADR-RES ovarian
# [24] = test system: EKVX NSCLC
# [25] = test system: ACHN renal
# [26] = test system: OVCAR-5 ovarian
# [27] = test system: SK-MEL-2 melanoma
# [28] = test system: IGROV1 ovarian
# [29] = test system: A549 NSCLC
# [30] = test system: SF-539 CNS
# [31] = test system: UO-31 renal
# [32] = test system: MALME-3M melanoma
# [33] = test system: RXF 393 renal
# [34] = test system: SNB-19 CNS
# [35] = test system: RPMI-8226 leukemia
# [36] = test system: HOP-92 NSCLC
# [37] = test system: NCI-H23 lung
# [38] = test system: MCF7 breast
# [39] = test system: A498 renal
# [40] = test system: KM12 colon
# [41] = test system: SK-MEL-5 melanoma
# [42] = test system: SF-295 CNS
# [43] = test system: PC-3 prostate
# [44] = test system: LOX IMVI melanoma
# [45] = test system: SK-MEL-28 melanoma
# [46] = test system: HCT-15 colon
# [47] = test system: MDA-N
# [48] = test system: COLO 205 colon
# [49] = test system: BT-549 breast
# [50] = test system: MDA-MB-435
# [51] = test system: HS 578T breast
# [52] = test system: 786-0 renal
# [53] = test system: SK-OV-3 ovarian
# [54] = test system: CAKI-1 renal
# [55] = test system: U251 CNS
# [56] = test system: K-562 leukemia
# [57] = test system: HOP-62 NSCLC
# [58] = test system: HL-60(TB) leukemia
# [59] = test system: UACC-62 melanoma
structure (smiles),measurement,setting,value
Cc1cc(O)c2c(c1)C(C1c3cccc(O)c3C(=O)c3c(O)cc(C)cc31)c1cccc(O)c1C2=O (stereo unspecified),TGI,[1],20.6 µM
same,TGI,[2],18.9 µM
same,TGI,[3],3.32 µM
same,TGI,[4],5.1 µM
same,TGI,[5],18.6 µM
same,TGI,[6],16.6 µM
same,TGI,[7],3.44 µM
same,TGI,[8],12.8 µM
same,TGI,[9],0.855 µM
same,TGI,[10],10.1 µM
same,TGI,[11],3.23 µM
same,TGI,[12],12.9 µM
same,TGI,[13],7.49 µM
same,TGI,[14],14 µM
same,TGI,[15],0.739 µM
same,TGI,[16],16.1 µM
same,TGI,[17],7.62 µM
same,TGI,[18],12.5 µM
same,TGI,[19],2.98 µM
same,TGI,[20],1.25 µM
same,TGI,[21],2.24 µM
same,TGI,[22],1.73 µM
same,TGI,[23],9.2 µM
same,TGI,[24],4.15 µM
same,TGI,[25],3.56 µM
same,TGI,[26],11.8 µM
same,TGI,[27],0.692 µM
same,TGI,[28],4.56 µM
same,TGI,[29],0.97 µM
same,TGI,[30],0.556 µM
same,TGI,[31],1.78 µM
same,TGI,[32],1.25 µM
same,TGI,[33],0.861 µM
same,TGI,[34],17.1 µM
same,TGI,[35],0.8 µM
same,TGI,[36],0.706 µM
same,TGI,[37],4.65 µM
same,TGI,[38],1.18 µM
same,TGI,[39],4.53 µM
same,TGI,[40],4.29 µM
same,TGI,[41],0.557 µM
same,TGI,[42],4.31 µM
same,TGI,[43],2.81 µM
same,TGI,[44],11.4 µM
same,TGI,[45],12.6 µM
same,TGI,[46],12.3 µM
same,TGI,[47],20.8 µM
same,TGI,[48],0.378 µM
same,TGI,[49],0.94 µM
same,TGI,[50],10.7 µM
same,TGI,[51],33.3 µM
same,TGI,[52],6.82 µM
same,TGI,[53],1.69 µM
same,TGI,[54],7.06 µM
same,TGI,[55],12.3 µM
same,TGI,[56],11.7 µM
same,TGI,[57],3 µM
same,TGI,[58],6.72 µM
NS(=O)(=O)c1ccc(N=Nc2c[nH]c(=O)c(O)c2)cc1,TGI,[1],> 100 µM
same,TGI,[2],> 100 µM
same,TGI,[3],> 100 µM
same,TGI,[4],> 100 µM
same,TGI,[5],> 100 µM
same,TGI,[7],28.6 µM
same,TGI,[8],> 100 µM
same,TGI,[9],> 100 µM
same,TGI,[10],44.1 µM
same,TGI,[59],> 100 µM
same,TGI,[11],> 100 µM
same,TGI,[12],> 100 µM
same,TGI,[13],> 100 µM
same,TGI,[14],> 100 µM
same,TGI,[15],82.6 µM
same,TGI,[16],> 100 µM
same,TGI,[17],> 100 µM
same,TGI,[18],> 100 µM
same,TGI,[19],> 100 µM
same,TGI,[20],> 100 µM
same,TGI,[21],> 100 µM
same,TGI,[22],> 100 µM
same,TGI,[23],> 100 µM
same,TGI,[24],> 100 µM
same,TGI,[25],> 100 µM
same,TGI,[26],> 100 µM
same,TGI,[27],> 100 µM
same,TGI,[28],> 100 µM
same,TGI,[29],> 100 µM
same,TGI,[30],> 100 µM
same,TGI,[31],> 100 µM
same,TGI,[32],82.4 µM
same,TGI,[33],> 100 µM
same,TGI,[34],> 100 µM
same,TGI,[35],> 100 µM
same,TGI,[36],> 100 µM
same,TGI,[37],> 100 µM
same,TGI,[38],> 100 µM
same,TGI,[39],> 100 µM
same,TGI,[40],> 100 µM
same,TGI,[41],> 100 µM
same,TGI,[42],> 100 µM
same,TGI,[43],> 100 µM
same,TGI,[44],> 100 µM
same,TGI,[45],> 100 µM
same,TGI,[46],> 100 µM
same,TGI,[47],> 100 µM
same,TGI,[48],> 100 µM
same,TGI,[49],> 100 µM
same,TGI,[50],> 100 µM
same,TGI,[51],> 100 µM
same,TGI,[52],> 100 µM
same,TGI,[53],> 100 µM
same,TGI,[54],> 100 µM
same,TGI,[55],46.3 µM
same,TGI,[56],> 100 µM
same,TGI,[57],> 100 µM
same,TGI,[58],> 100 µM

# Source: PubChem BioAssay (NCI)
